ChEMBL document CHEMBL3997814, “Identification of novel inverse agonists of estrogen-related receptors ERRγ and ERRβ” (Bioorg Med Chem, 2017)
The source made the active and inactive calls. The calls are words filed in the database; no cut-off is given here.

How the values were obtained:
[1] = target: T1, Estrogen receptor (Homo sapiens) (UniProt P03372); test: Inverse agonist activity at human ERalpha expressed in African green monkey CV1 cells assessed as decrease in receptor transcriptional activity up to 3 uM after 45 hrs by luciferase reporter gene assay; type: cell-based
T1 sequence (whole entry): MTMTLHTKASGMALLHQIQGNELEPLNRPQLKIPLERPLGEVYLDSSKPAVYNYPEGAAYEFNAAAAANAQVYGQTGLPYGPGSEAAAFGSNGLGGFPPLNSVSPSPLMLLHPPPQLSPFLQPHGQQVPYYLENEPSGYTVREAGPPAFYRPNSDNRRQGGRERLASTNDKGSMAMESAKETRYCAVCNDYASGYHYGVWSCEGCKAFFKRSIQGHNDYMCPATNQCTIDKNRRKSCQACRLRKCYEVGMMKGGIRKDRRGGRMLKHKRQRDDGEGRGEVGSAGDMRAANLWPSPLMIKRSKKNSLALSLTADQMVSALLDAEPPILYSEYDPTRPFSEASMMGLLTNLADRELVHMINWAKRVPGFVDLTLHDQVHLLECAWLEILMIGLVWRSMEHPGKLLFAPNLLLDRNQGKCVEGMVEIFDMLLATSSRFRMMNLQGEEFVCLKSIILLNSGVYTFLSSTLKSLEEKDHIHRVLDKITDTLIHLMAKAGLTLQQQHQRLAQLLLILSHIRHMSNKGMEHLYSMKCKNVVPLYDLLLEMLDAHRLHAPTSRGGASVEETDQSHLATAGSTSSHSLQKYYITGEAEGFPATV

[2] = target: T2, Steroid hormone receptor ERR1 (Homo sapiens) (UniProt P11474); test: Inverse agonist activity at GAL4-DNA binding domain-fused human ERRalpha ligand binding domain expressed in African green monkey CV1 cells assessed as decrease in receptor transcriptional activity at 10 uM after 45 hrs by luciferase reporter gene assay; type: cell-based
T2 sequence (whole entry): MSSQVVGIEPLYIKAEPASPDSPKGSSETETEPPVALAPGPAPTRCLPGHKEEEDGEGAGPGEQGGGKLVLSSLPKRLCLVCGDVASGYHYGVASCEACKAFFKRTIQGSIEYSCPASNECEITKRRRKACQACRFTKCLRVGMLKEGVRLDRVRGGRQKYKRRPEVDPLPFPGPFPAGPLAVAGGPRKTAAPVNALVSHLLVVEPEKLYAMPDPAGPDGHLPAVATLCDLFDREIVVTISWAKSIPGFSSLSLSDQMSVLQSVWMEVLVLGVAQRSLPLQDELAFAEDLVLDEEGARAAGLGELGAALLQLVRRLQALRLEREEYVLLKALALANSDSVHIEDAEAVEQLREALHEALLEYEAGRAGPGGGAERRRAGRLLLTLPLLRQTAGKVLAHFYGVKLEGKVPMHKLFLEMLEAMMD

[3] = target: Estrogen receptor beta (Homo sapiens) (UniProt Q92731); test: Inverse agonist activity at human ERbeta expressed in African green monkey CV1 cells assessed as decrease in receptor transcriptional activity up to 3 uM after 45 hrs by luciferase reporter gene assay; type: cell-based
[4] = target: T1, Estrogen receptor (Homo sapiens); test: Antagonist activity at human ERalpha expressed in African green monkey CV1 cells assessed as decrease in receptor transcriptional activity after 45 hrs by luciferase reporter gene assay; type: cell-based
[5] = target: T2, Steroid hormone receptor ERR1 (Homo sapiens); test: Inverse agonist activity at GAL4-DNA binding domain-fused human ERRalpha ligand binding domain expressed in African green monkey CV1 cells assessed as decrease in receptor transcriptional activity after 45 hrs by luciferase reporter gene assay; type: cell-based
[6] = target: T3, Estrogen-related receptor gamma (Mus musculus, UniProt P62509)
T3 sequence (P62509 whole entry): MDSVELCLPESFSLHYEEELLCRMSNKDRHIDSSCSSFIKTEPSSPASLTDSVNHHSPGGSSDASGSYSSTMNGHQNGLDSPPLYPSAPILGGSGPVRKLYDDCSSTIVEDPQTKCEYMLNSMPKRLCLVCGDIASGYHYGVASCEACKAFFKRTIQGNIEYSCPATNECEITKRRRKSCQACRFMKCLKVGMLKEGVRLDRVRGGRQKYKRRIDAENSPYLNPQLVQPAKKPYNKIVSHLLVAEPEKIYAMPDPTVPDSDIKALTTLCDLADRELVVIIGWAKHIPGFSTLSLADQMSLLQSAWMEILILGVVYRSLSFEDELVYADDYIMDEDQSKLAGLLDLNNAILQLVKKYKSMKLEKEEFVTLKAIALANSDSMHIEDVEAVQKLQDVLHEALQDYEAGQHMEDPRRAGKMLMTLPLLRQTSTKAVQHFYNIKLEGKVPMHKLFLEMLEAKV
Description: Inverse agonist activity at GAL4-DNA binding domain-fused mouse ERRgamma ligand binding domain expressed in African green monkey CV1 cells assessed as decrease in receptor transcriptional activity after 45 hrs by luciferase reporter gene assay

Sequence of Estrogen receptor beta (Homo sapiens) (Q92731 whole entry): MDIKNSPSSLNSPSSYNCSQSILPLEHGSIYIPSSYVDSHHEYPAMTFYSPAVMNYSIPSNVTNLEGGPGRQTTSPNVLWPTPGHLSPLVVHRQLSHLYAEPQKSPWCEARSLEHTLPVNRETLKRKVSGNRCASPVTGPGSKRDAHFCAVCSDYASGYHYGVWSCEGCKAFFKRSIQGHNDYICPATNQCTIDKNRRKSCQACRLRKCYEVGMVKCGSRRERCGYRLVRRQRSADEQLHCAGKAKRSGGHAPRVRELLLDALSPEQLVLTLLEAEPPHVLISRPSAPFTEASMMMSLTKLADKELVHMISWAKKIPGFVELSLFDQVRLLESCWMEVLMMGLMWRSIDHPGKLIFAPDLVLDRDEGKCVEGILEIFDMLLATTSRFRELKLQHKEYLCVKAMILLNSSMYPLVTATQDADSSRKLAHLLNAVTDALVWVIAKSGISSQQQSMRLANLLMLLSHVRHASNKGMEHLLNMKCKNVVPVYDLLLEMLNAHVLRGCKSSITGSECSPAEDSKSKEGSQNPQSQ

| Structure (SMILES) | Activity [2] | other results |
| --- | --- | --- |
| COC(=O)CC/C(=C(\c1ccc(O)cc1)c1ccc(OCCN(C)C)cc1)c1ccccc1 | inactive | Activity [1]: inactive; Activity [3]: inactive |
| CC(=O)Oc1ccc(/C(=C(/c2ccccc2)C(C)C)c2ccc(OCCN(C)C)cc2)cc1 | inactive | inhibition [4]: Active |
| COC(=O)C(C)C/C(=C(\c1ccc(O)cc1)c1ccc(OCCN(C)C)cc1)c1ccccc1 (stereo not given) | inactive | Activity [1]: inactive; Activity [3]: inactive |
| CC/C(=C(/c1ccc(O)cc1)c1ccc(OCCN(C)C)cc1)c1ccccc1 |  | Activity [5]: inactive |
| CC(CO)C/C(=C(\c1ccc(O)cc1)c1ccc(OCCN(C)C)cc1)c1ccccc1 (stereo not given) | inactive |  |
| CC/C(=C(\c1ccc(O)cc1)c1ccc(OCCN(C)C)cc1)c1ccccc1 | inactive |  |
| CC(C)C/C(=C(\c1ccc(O)cc1)c1ccc(OCCN(C)C)cc1)c1ccccc1 | inactive | IC50 [6]: 1 µM |
| CN(C)CCOc1ccc(/C(=C(/CCCO)c2ccccc2)c2ccc(O)cc2)cc1 | inactive |  |
| COC(=O)CCC(=C(c1ccc(O)cc1)c1ccc(O)cc1)c1ccccc1 | inactive |  |
| COC(=O)C(C)CC(=C(c1ccc(O)cc1)c1ccc(O)cc1)c1ccccc1 (stereo not given) | inactive |  |
| CC(C)/C(=C(\c1ccc(O)cc1)c1ccc(OCCN(C)C)cc1)c1ccccc1 | inactive |  |
| CC(=O)Oc1ccc(/C(=C(\CCCO)c2ccccc2)c2ccc(OCCN(C)C)cc2)cc1 | inactive | IC50 [6]: 0.3 µM |
| CC(=O)Oc1ccc(/C(=C(\CC(C)CO)c2ccccc2)c2ccc(OCCN(C)C)cc2)cc1 (stereo not given) | inactive |  |
